For test [1], the target named is T1, E. coli K12 PBP3 (Escherichia coli, UniProt P0AD68).
T1 construct: made in house
The experiment in a line: biochemical. The test is classed as binding. The method, boiled down: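 A. baumannii PBP2 (2.5 μM) and PBP3 (0.2 μM) were run in 25 mM Tris pH 8.0 buffer with Tween 20; E. coli PBP3 (1.5 μM) and N. gonorrhoeae PBP2 ([…]) in 50 mM Hepes pH 8.0 buffer.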

Test [2] relates to N. gonorrhoeae ATCC 49226. Put plainly: Liquid broth MIC in Fastidious broth. The test is classed as cell-based. The following applies: Neisseria gonorrhoeae, ATCC49226; N. gonorrhoeae strain ATCC 49226; Fastidious broth; read-out: Minimum Inhibitory Concentration, N. gonorrhoeae ATCC 49226. As to the method: (§1) Example V: In Vitro Antibacterial Assays for N. gonorrhoeae Strains
(§2) Additional antibacterial testing of the series was performed in 8 reference strains of N. gonorrhoeae (ATCC 49226, FA1090, WHO G, WHO L, WHO K, H041, WHO Z, and WHO Q). ATCC 49226, FA1090, WHO G, and WHO L produce wild type or wild-type like PBP2. WHO K, H041, WHO Z, and WHO Q produce mosaic PBP2. Liquid broth-based assays were used for antibacterial testing of PBP inhibitors in Neisseria gonorrhoeae. Briefly, cryo-preserved bacterial cultures of clinical strains were streaked for isolation on Chocolate Agar (72 g/L (2×) GC Agar Base (BD #228950) and 2% (2×) Hemoglobin was autoclaved at 121° C. for 20 minutes to sterilize. Once cooled to ˜50° C. the 2× GC Agar Base and 2× Hemoglobin solutions are combined and 1% IsoVitaleX Enrichment (BD #211876) was added to the solution). Strains were incubated at 36° C. and 5% CO2 to allow growth of colonies, 24 hours before inoculum preparation. 2-fold serial dilutions of test compounds were conducted in a 96 well plate with a final volume of 75 μL per well at 2-fold the final desired concentration in Fastidious broth (Remel #R07664). For preparation of assay inoculum, a direct suspension was prepared by aseptically swabbing all colonies from agar plates into culture tubes containing 2 mL of fresh sterile saline. After the dilution plates were set up, direct suspensions were then diluted in a cuvette containing sterile saline and the optical density was measured at 600 nm. Inocula were diluted such that 75 μL of this culture in Fastidious broth results in a starting bacterial concentration of 5×10^5 CFU/mL when added to the dilution plates. The plates were incubated for ˜24 hours at 36° C. and 5% CO2. The MIC was read visually as the lowest concentration well with <10% bacterial growth compared to wells of full growth.

In test [3] the test system is N. gonorrhoeae WHO G. Put plainly: Liquid broth MIC in Fastidious broth. The test is classed as cell-based. As to conditions: Neisseria gonorrhoeae; N. gonorrhoeae strain WHO G; Fastidious broth; read-out: Minimum Inhibitory Concentration, N. gonorrhoeae WHO G. As to the method: as §1, §2
Test [4] has as its system N. gonorrhoeae WHO L. The experiment in a line: Liquid broth MIC in Fastidious broth. As to conditions: Neisseria gonorrhoeae; N. gonorrhoeae strain WHO L; Fastidious broth; read-out: Minimum Inhibitory Concentration, N. gonorrhoeae WHO L. The test is classed as cell-based. As to the method: as §1, §2
For test [5], the system named is N. gonorrhoeae H041. The experiment in a line: Liquid broth MIC in Fastidious broth. The test is classed as cell-based. As to conditions: Neisseria gonorrhoeae, H041, read-out: Minimum Inhibitory Concentration, N. gonorrhoeae H041. As to the method: as §1, §2
The test system of test [6] is N. gonorrhoeae WHO K. The experiment in a line: Liquid broth MIC in Fastidious broth. The test is classed as cell-based. The following applies: Neisseria gonorrhoeae, read-out: Minimum Inhibitory Concentration, N. gonorrhoeae WHO K. Here is the method: as §1, §2
The test system of test [7] is N. gonorrhoeae FA1090. Put plainly: Liquid broth MIC in Fastidious broth. The test is classed as cell-based. The following applies: Neisseria gonorrhoeae; N. gonorrhoeae strain FA1090; Fastidious broth; read-out: Minimum Inhibitory Concentration, N. gonorrhoeae FA1090. Here is the method:
as §1, §2

pEC50: −log10 of the molar value. ≈ marks a conversion by molar mass, not a printed value.

T1 sequence (P0AD68 1-577): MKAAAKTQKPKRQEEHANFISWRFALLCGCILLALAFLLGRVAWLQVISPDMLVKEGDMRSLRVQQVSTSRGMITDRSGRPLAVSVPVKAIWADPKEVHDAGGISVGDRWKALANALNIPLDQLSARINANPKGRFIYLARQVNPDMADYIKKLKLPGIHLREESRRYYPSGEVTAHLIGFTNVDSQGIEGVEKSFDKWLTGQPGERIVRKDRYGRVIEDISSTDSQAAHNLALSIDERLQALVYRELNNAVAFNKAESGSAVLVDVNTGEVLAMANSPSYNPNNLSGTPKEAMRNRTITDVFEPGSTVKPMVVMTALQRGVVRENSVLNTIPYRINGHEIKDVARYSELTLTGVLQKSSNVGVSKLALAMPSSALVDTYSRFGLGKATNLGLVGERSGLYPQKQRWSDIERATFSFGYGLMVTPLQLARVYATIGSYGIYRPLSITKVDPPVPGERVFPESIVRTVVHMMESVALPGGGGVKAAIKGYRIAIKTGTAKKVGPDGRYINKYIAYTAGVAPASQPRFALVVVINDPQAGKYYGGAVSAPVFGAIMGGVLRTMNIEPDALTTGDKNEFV

Usually pEC50 stands for −log10 of the EC50, conventionally taken in molar units. Lower therefore signals a high EC50. With `NCCN1CCN(C(=O)N[C@H](C(=O)N[C@H]2Cc3cccc(C(=O)O)c3OB2O)c2ccc(O)cc2F)C(=O)C1=O` (single isomer, unassigned) [Example 88], in test [1], the pEC50 was 3.30 to 4.52. The MIC is greater than 64 µg/mL in test [2]; 16 to 32 µg/mL (≈ 28.7 to 57.4 µM) in test [3]; greater than 64 µg/mL in test [4]; greater than 64 µg/mL in test [5]; greater than 64 µg/mL in test [6]; 4 to 8 µg/mL (≈ 7.18 to 14.4 µM) in test [7].
In test [1], `NCCN1CCN(C(=O)N[C@@H](C(=O)N[C@H]2Cc3cccc(C(=O)O)c3OB2O)c2ccc(O)cc2F)C(=O)C1=O` (single isomer, unassigned) [Example 89] had a pEC50 of 3.30 to 4.52. Besides, the MIC in test [2] is 16 to 32 µg/mL (≈ 28.7 to 57.4 µM); in test [3] it was 4 to 8 µg/mL (≈ 7.18 to 14.4 µM); in test [4], greater than 64 µg/mL; in test [5], greater than 64 µg/mL; in test [6], greater than 64 µg/mL; in test [7], 1 to 2 µg/mL (≈ 1.79 to 3.59 µM).
In the case of `CCN1CCN(C(=O)N[C@@H](C(=O)N[C@H]2Cc3cccc(C(=O)O)c3OB2O)c2cc(Cl)c(O)cc2Cl)C(=O)C1=O` (single isomer, unassigned) [Example 91], in test [1], the pEC50 was greater than 4.52. The MIC in test [2] is 16 to 32 µg/mL (≈ 27 to 53.9 µM); in test [3] it was 1 to 2 µg/mL (≈ 1.69 to 3.37 µM); in test [4], greater than 64 µg/mL; in test [5] it was 16 to 32 µg/mL (≈ 27 to 53.9 µM); in test [6], 16 to 32 µg/mL (≈ 27 to 53.9 µM); in test [7], 0.25 to 0.5 µg/mL (≈ 0.421 to 0.843 µM).
With `CCN1CCN(C(=O)N[C@H](C(=O)N[C@H]2Cc3cccc(C(=O)O)c3OB2O)c2cc(Cl)c(O)cc2Cl)C(=O)C1=O` (single isomer, unassigned) [Example 92], the pEC50 in test [1] is less than 3.30. In addition, the MIC is greater than 64 µg/mL in test [2]; greater than 64 µg/mL in test [3]; greater than 64 µg/mL in test [4]; greater than 64 µg/mL in test [5]; greater than 64 µg/mL in test [6]; 16 to 32 µg/mL (≈ 27 to 53.9 µM) in test [7].
Regarding `O=C(O)c1ccc(C(NC(=O)c2ccc(O)c(O)c2Cl)C(=O)N[C@H]2Cc3cccc(C(=O)O)c3OB2O)cc1F` (stereo partly drawn) [Example 7, (3R)-3-(2-(4-carboxy-3-fluorophenyl)-2-(2-chloro-3,4-dihydroxybenzamido)acetamido)-2-hydroxy-3,4-dihydro-2H-benzo[e][1,2]oxaborinine-8-carboxylic acid], the pEC50 in test [1] is 3.30 to 4.52. Moreover, the MIC in test [2] was greater than 64 µg/mL; in test [3] it was greater than 64 µg/mL; in test [4] it was greater than 64 µg/mL; in test [5], greater than 64 µg/mL; in test [6], greater than 64 µg/mL; in test [7], 16 to 32 µg/mL (≈ 27.9 to 55.9 µM).
In test [1], `O=C(NC(C(=O)N[C@H]1Cc2ccc(F)c(C(=O)O)c2OB1O)c1ncc(O)cc1F)c1ccc(O)c(O)c1Cl` (stereo partly drawn) [Example 8, (3R)-3-(2-(2-chloro-3,4-dihydroxybenzamido)-2-(3-fluoro-5-hydroxypyridin-2-yl)acetamido)-7-fluoro-2-hydroxy-3,4-dihydro-2H-benzo[e][1,2]oxaborinine-8-carboxylic acid] showed a pEC50 of 3.30 to 4.52. The MIC is greater than 64 µg/mL in test [2]; 16 to 32 µg/mL (≈ 28.4 to 56.8 µM) in test [3]; greater than 64 µg/mL in test [4]; greater than 64 µg/mL in test [5]; greater than 64 µg/mL in test [6]; 4 to 8 µg/mL (≈ 7.1 to 14.2 µM) in test [7].
In turn, `O=C(Nc1ccc(O)c(O)c1Cl)NC(C(=O)N[C@H]1Cc2ccc(F)c(C(=O)O)c2OB1O)c1ncc(O)cc1F` (stereo partly drawn) [Example 9, (3R)-3-(2-(3-(2-chloro-3,4-dihydroxyphenyl)ureido)-2-(3-fluoro-5-hydroxypyridin-2-yl)acetamido)-7-fluoro-2-hydroxy-3,4-dihydro-2H-benzo[e][1,2]oxaborinine-8-carboxylic acid] showed a pEC50 in test [1] of 3.30 to 4.52. Moreover, the MIC in test [2] is greater than 64 µg/mL; in test [3], greater than 64 µg/mL; in test [4], greater than 64 µg/mL; in test [5], greater than 64 µg/mL; in test [6] it was greater than 64 µg/mL; in test [7] it was 16 to 32 µg/mL (≈ 27.6 to 55.3 µM).
In the case of `O=C(NC(C(=O)N[C@H]1Cc2ccc(F)c(C(=O)O)c2OB1O)c1ncc(O)cc1F)c1c(F)cc(O)c(O)c1Cl` (stereo partly drawn) [Example 10, (3R)-3-(2-(2-chloro-6-fluoro-3,4-dihydroxybenzamido)-2-(3-fluoro-5-hydroxypyridin-2-yl)acetamido)-7-fluoro-2-hydroxy-3,4-dihydro-2H-benzo[e][1,2]oxaborinine-8-carboxylic acid], in test [1], the pEC50 is 3.30 to 4.52. Further, the MIC in test [2] was greater than 64 µg/mL; in test [3] it was greater than 64 µg/mL; in test [4], greater than 64 µg/mL; in test [5] it was greater than 64 µg/mL; in test [6], greater than 64 µg/mL; in test [7], 16 to 32 µg/mL (≈ 27.5 to 55 µM).
Regarding `O=C(O)c1ccc(C(NC(=O)N2CCN(CCNC(=O)c3ccc(O)c(O)c3Cl)C(=O)C2=O)C(=O)N[C@H]2Cc3ccc(F)c(C(=O)O)c3OB2O)cc1F` (stereo partly drawn) [Example 11, (3R)-3-(2-(4-carboxy-3-fluorophenyl)-2-(4-(2-(2-chloro-3,4-dihydroxybenzamido)ethyl)-2,3-dioxopiperazine-1-carboxamido)acetamido)-7-fluoro-2-hydroxy-3,4-dihydro-2H-benzo[e][1,2]oxaborinine-8-carboxylic acid], the pEC50 in test [1] is greater than 4.52. The MIC in test [2] is 16 to 32 µg/mL (≈ 20.7 to 41.4 µM); in test [3] it was 4 to 8 µg/mL (≈ 5.17 to 10.3 µM); in test [4], greater than 64 µg/mL; in test [5], greater than 64 µg/mL; in test [6], greater than 64 µg/mL; in test [7], 1 to 2 µg/mL (≈ 1.29 to 2.58 µM).
With `CCN1CCN(C(=O)NC(C(=O)N[C@H]2Cc3ccc(F)c(C(=O)O)c3OB2O)c2ccc(C(=O)O)cc2)C(=O)C1=O` (stereo partly drawn) [Example 15, (3R)-3-(2-(4-carboxyphenyl)-2-(4-ethyl-2,3-dioxopiperazine-1-carboxamido)acetamido)-7-fluoro-2-hydroxy-3,4-dihydro-2H-benzo[e][1,2]oxaborinine-8-carboxylic acid], the pEC50 in test [1] is greater than 4.52. Further, the MIC in test [2] is 4 to 8 µg/mL (≈ 7.01 to 14 µM); in test [3] it was 4 to 8 µg/mL (≈ 7.01 to 14 µM); in test [4], greater than 64 µg/mL; in test [5], 4 to 8 µg/mL (≈ 7.01 to 14 µM); in test [6] it was 4 to 8 µg/mL (≈ 7.01 to 14 µM); in test [7] it was 0.25 to 0.5 µg/mL (≈ 0.438 to 0.877 µM).
`CCN1CCN(C(=O)NC(C(=O)N[C@H]2Cc3cccc(C(=O)O)c3OB2O)c2ccc(O)c(NC(C)=O)c2)C(=O)C1=O` (stereo partly drawn) [Example 17, (3R)-3-(2-(3-acetamido-4-hydroxyphenyl)-2-(4-ethyl-2,3-dioxopiperazine-1-carboxamido)acetamido)-2-hydroxy-3,4-dihydro-2H-benzo[e][1,2]oxaborinine-8-carboxylic acid] showed a pEC50 in test [1] of 3.30 to 4.52. For the same compound, the MIC was greater than 64 µg/mL in test [2]; greater than 64 µg/mL in test [3]; greater than 64 µg/mL in test [4]; greater than 64 µg/mL in test [5]; greater than 64 µg/mL in test [6]; 1 to 2 µg/mL (≈ 1.72 to 3.44 µM) in test [7].
In turn, `CCN1CCN(C(=O)NC(C(=O)N[C@H]2Cc3ccc(F)c(C(=O)O)c3OB2O)c2nc(N)sc2F)C(=O)C1=O` (stereo partly drawn) [Example 18, (3R)-3-(2-(2-amino-5-fluorothiazol-4-yl)-2-(4-ethyl-2,3-dioxopiperazine-1-carboxamido)acetamido)-7-fluoro-2-hydroxy-3,4-dihydro-2H-benzo[e][1,2]oxaborinine-8-carboxylic acid] had a pEC50 in test [1] greater than 4.52. The MIC in test [2] lay in the range of 4 to 8 µg/mL (≈ 7.06 to 14.1 µM); in test [3] it was 4 to 8 µg/mL (≈ 7.06 to 14.1 µM); in test [4] it was 16 to 32 µg/mL (≈ 28.3 to 56.5 µM); in test [5], 16 to 32 µg/mL (≈ 28.3 to 56.5 µM); in test [6], 16 to 32 µg/mL (≈ 28.3 to 56.5 µM); in test [7] it was 1 to 2 µg/mL (≈ 1.77 to 3.53 µM).
`CCN1CCN(C(=O)N[C@H](C(=O)N[C@H]2Cc3cccc(C(=O)O)c3OB2O)c2nc(Cl)c(C(=O)O)cc2F)C(=O)C1=O` [Example 19, 6-((S)-2-(((R)-8-carboxy-2-hydroxy-3,4-dihydro-2H-benzo[e][1,2]oxaborinin-3-yl)amino)-1-(4-ethyl-2,3-dioxopiperazine-1-carboxamido)-2-oxoethyl)-2-chloro-5-fluoronicotinic acid] gave a pEC50 in test [1] greater than 4.52. Moreover, the MIC is 16 to 32 µg/mL (≈ 26.4 to 52.8 µM) in test [2]; 4 to 8 µg/mL (≈ 6.6 to 13.2 µM) in test [3]; greater than 64 µg/mL in test [4]; greater than 64 µg/mL in test [5]; greater than 64 µg/mL in test [6]; 1 to 2 µg/mL (≈ 1.65 to 3.3 µM) in test [7].

For the origin of these results see patent US20230114728A1 (Venatorx Pharmaceuticals, Inc., priority 2019, published 2023).
